Experimental data: paper PMC11173422, “Substitution-Induced Mechanistic Switching in SNAr-Warheads for Cysteine Proteases” (Molecules, 2024)
Read-outs that look alike come from different tables or passages of the source.

Assays:
Rhodesain (TbCatL) = biological target: T1, Rhodesain (TbCatL) (Trypanosoma brucei rhodesiense, UniProt Q95PM0); test: Fluorimetric rhodesain inhibition assay with Z-Phe-Arg-AMC; type: biochemical; settings: for Mode of inhibition (time dependency, reversibility): from progress curves; for Inhibition of rhodesain, in words: SAR discussion
T1 construct: stably transformed with the rhodesain ΔC gene cloned into the pPICZαA vector; made in house; host or cells: Pichia pastoris X-33 (pPICZαA, secreted into the culture supernatant)
T1 sequence (Q95PM0 entry or part of it): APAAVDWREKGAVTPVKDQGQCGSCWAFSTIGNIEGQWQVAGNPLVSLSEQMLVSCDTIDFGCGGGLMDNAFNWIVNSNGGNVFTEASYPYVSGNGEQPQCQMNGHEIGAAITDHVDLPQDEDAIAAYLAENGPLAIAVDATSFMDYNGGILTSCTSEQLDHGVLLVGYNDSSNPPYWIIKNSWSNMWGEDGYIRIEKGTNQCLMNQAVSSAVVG
Experimental: Inhibition of rhodesain was assessed using Z-Phe-Arg-AMC as a fluorogenic substrate. IC50 or KI^app were determined depending on the time dependency of the progress curves. Because a competitive mode of inhibition can be assumed, Ki (for reversible inhibition) and KI (for irreversible inhibition) were calculated using the Cheng–Prusoff equation [30].
Fluorimetric enzyme assays were performed as described in the literature. Information regarding buffers, concentrations, the employed substrate, as well as data analysis for linear and non-linear regression is given in the SI. In short, the cleavage of a fluorogenic substrate by the protease of interest is detected in the presence of different concentrations of inhibitors. […] For the irreversible compound with non-linear regression, the kinetic kinact value was also plotted, from which k2nd was calculated.
To investigate this influence, its inhibition of […]
nucleophilic reducing agent for enzyme activation).
Reversibility assessment for time-dependent inhibitor 9
After this incubation period, the samples
Rhodesain, CatL, CatB Assays
Continuous fluorometric measurements with a Tecan Spark 10M reader in a 96 well plate format was used to evaluate activity. Rhodesain, HsCatB and HsCatL were diluted in their respective activation buffer prior to use. Rhodesain was incubated in this for 30–60 min prior to use. The enzyme of interest (5 µL) was incubated with the inhibitor in question (10 µL), and its specific substrate (5 µL) in the respective assay buffer. The fluorescence signal was measured every 30 s for 10 min at room temperature with the corresponding excitation/emission wavelengths (λex = 380 nm / λem = 460 nm). The final concentrations and buffer compositions are depicted in SI-Table S1. Inner-filter effect corrections were performed as described in literature if deviations >5% were detected.
SI-Table S1: Information on assay conditions. [E] = final enzyme concentration, [S] = final substrate concentration in well.
For the evaluation of 9 in absence of DTT (depicted in SI-Figure S5): 5 nM final rhodesain concentration that was activated before in presence of TCEP (alternative activation buffer: 5 mM DTT → 5 mM TCEP) […]
Time-independent behavior
For inhibitors that behaved time-independently during the measurements (i.e., F-t-diagrams show constant slope), IC50 values using defined dilution series for each compound were calculated with GraphPad PRISM by fitting the remaining enzymatic activity to a four parameter IC50 equation with Y [%] as the residual enzyme activity, Ymax as the maximum value of the dose response curve at inhibitor concentrations [I] = 0 µM, Ymin as the minimum value at high inhibitor concentrations and s as the Hill […]
y [%residual activity]=௬ౣ౗౮ ି௬ౣ౟౤ೞ + y୫୧୬ eq. 1
It is assumed that the inhibitors bind competitively in respect to the substrate. Due to the dependence of the IC50 value on the substrate affinity and concentration, the Ki values were calculated with the Cheng-Prusoff equation, using the final substrate concentration [S] and the Michaelis-Menten constant KM to […]
For inhibitors that behaved time-dependently during the measurements (i.e., F-t-diagrams show reducing slopes over time), KIapp and kinact values using defined dilution series for each compound were calculated

rhodesain [1] = biological target: T2, rhodesain (Trypanosoma brucei rhodesiense, UniProt Q95PM0); test: MALDI-TOF-MS (sinapinic acid matrix) adduct detection; type: binding; design: stably transformed with the rhodesain ΔC gene cloned into the pPICZαA vector; made in house; host or cells: Pichia pastoris X-33 (pPICZαA, secreted into the culture supernatant); settings: 100 µM inhibitor, 10 µM rhodesain, acidic sinapinic acid matrix
T2 sequence (Q95PM0 entry or part of it): as above
Experimental: Using MALDI-TOF-MS, differentiation between non-covalent and covalent ligand-target complexes is possible if acidic matrices are used that interfere with ionic and dipole interactions (i.e., suppress non-covalent interactions).
Protein mass spectrometry was performed as described before, but also described in detail in the SI. In short, rhodesain was incubated with a surplus of inhibitor under conditions similar to those of the enzyme assays described above to enable complex formation. This sample was desalted and then incorporated into a sinapinic acid matrix, which was then subjected to mass spectrometry. Data analysis was performed using mMass.
Mass spectrometric experiments were performed as described before. Lyophilized rhodesain was first […]
manufacturer’s instructions.
Then, the mixtures were left in the fume hood for cocrystallization until dry.
TOF/TOF mass spectrometer (Bruker Daltonik GmbH, Bremen, Germany). The instrument is equipped […]
cropping from 22–27 kDa was performed.
Baseline was corrected with standard settings. […]

[2] = Stability towards general substitution reactions (water, DTT); type: physicochemical; settings: NH4OAc buffer pH 5.5, with or without DTT; UV spectra and LCMS
Experimental: 0.1 inhibitor concentration
SI-Figure S1: (A) Absorption spectra of 2, 3 and 9 with different concentrations, visualizing a potential need for mathematical correction at high concentrations for nitroanilines. ( B) Experimental proof that mathematical correction of attenuation of AMC fluorescence is only necessary for inhibitor concentrations ≥10 µM. For 2 and 3 at 10 µM attenuation of fluorescence signal is 14 and 11 %, respectively. At concentrations relevant for IC50 evaluation, no relevant interference is detected.
Stability measurements towards general substitution reactions
2, 3 and 9 (from 20 mM stock solutions in DMSO) were diluted into NH4OAc buffer (pH 5.5) to final concentrations of 100 µM, 125 µM or 1 mM and incubated in buffer alone or in presence of as much DTT as present in the fluorimetric rhodesain assay and the MALDI-TOF experiment, respectively. This was recorded with absorption spectroscopy (results depicted in SI-Figure S2) on a Tecan Spark 10M plate reader in UV-transparent 96-well plates (Greiner UV-Star®, 655801, 200 µL volume per sample) or with LCMS (see “measurement setup for LCMS” as described under the method for PAMPA; results depicted […]
system at pH 5.5 over the course of the time necessary for the employed assays. There is a small difference detectable in reactivity of 3 with 5 mM DTT: a slight but time-dependent change in UV-spectrum was found where the maximum at 265 nm decreased in intensity, indicating a small degree of degradation […]
that is not observed with lower DTT concentration or with 2 at all. The formation takes place on a much larger timescale as the time for detection in the assays (minutes vs. hours) and is therefore irrelevant to the performed evaluations. […]
repeated LCMS analysis indicates the formation of the phenol (substitution of fluoride) over the course of hours. This also seems to happen in the DMSO stock solution to a small degree after some usage (explains the presence of phenol at 0 min). Accordingly, in presence of DTT, both the phenol and the thioether are detected by MS for this compound. […]

[3] = Parallel artificial membrane permeability assay (PAMPA); settings: pH 7.4
Experimental: An artificial membrane consisting of phosphatidylcholine dissolved in n-dodecane was employed to control equilibration between two connected aqueous compartments, of which one contained the compound of interest. This model for compound permeation through a cell membrane was incubated, and the resulting concentration in the acceptor compartment was quantified spectroscopically.
A general literature-known principle was used [11]. Propranolol hydrochloride was sourced from Changzou Yabang Pharmaceutical (Fagron GmbH & Co. KG). Candesartan cilexetil was sourced as a chemical reference standard from the EDQM (catalogue code Y0001388).
Incubation setup consisted of donor (top) plate (Sigma Aldrich, MAIPNTR10), 5 µL artificial membrane
(1 % (w/v) L-α-phosphatidyl choline, Sigma Aldrich P3556, in n-dodecane, Sigma Aldrich 8205430100),
transparent measurement plate (Greiner UV-Star®, 655801), Tecan Spark 10M® well plate reader, 200 µL

[4] = Aqueous solubility observed in PAMPA set-up; type: physicochemical; settings: buffered aqueous solution pH 7.4, 5% DMSO
Experimental: acceptor (bottom) plate (Greiner, 655074). Measurement setup for direct spectroscopy consisted of UV- […]
sample volume, λ = 200–650 nm. […]
elution (0.7 mL/min). Injection volume was 100 µL. Areas of peaks in the chromatogram (detection-λ = 210 nm) were used to calculate the AUCs. Retention time and mass spectrum recorded in positive ionization mode were used to assign species. Analysis was performed using MestreNova. […]
donor plate. This was sealed (Greiner, 676070, Viewseal sealer). 400 µL of acceptor solution was applied to the acceptor plate. Incubation setup was assembled and left for 7 h. After this time, acceptor and reference solutions were analyzed.
The acceptor solutions of those were measured
P௔௣௣ = −(௏ವ ା௏ಲ )∗஺∗௧ eq. 6

rhodesain [5] = biological target: T2, rhodesain; settings: 1.5 h incubation (9: 400 µM; K11777: 500 nM), diluted 1:100, n = 2; uninhibited 0.68 ± 0.05 FU/s
Experimental: rhodesain was reassessed in DTT-free conditions (tris(2-carboxyethyl)phosphine = TCEP used as a non-
The reactivity towards water should not be seriously
To assess reversibility of the time-dependent inhibitor [4], and to therefore discriminate between slow-
reversible and irreversible inhibition, rhodesain was incubated with compound 9 for 1.5 h, at an inhibitor
concentration of 400 µM (7.5x KI) to enable the quantita tive progression of a covale nt irreversible reaction
if one is possible. The same incubation was performed with DMSO alone as a negative control and in
presence of 500 nM K11777 as a positive irreversible control. After this incubation period, the samples
were diluted 1:100 (to 4 µM of compound 9 (0.075x KI)) into assay buffer containing substrate to record
the degree of recovery of enzymatic activity over the course of 10 min.
Raw activity of rhodesain after dilution was

| Compound | Ki (Rhodesain (TbCatL)) | Inhibition of rhodesain, in words (Rhodesain (TbCatL)) | further results |
| --- | --- | --- | --- |
| CC(C)C[C@H](NC(=O)[C@H](Cc1ccccc1)Nc1ccccc1[N+](=O)[O-])C(=O)O [Compound 1] | 39 µM | – | – |
| CC(C)C[C@H](NC(=O)[C@H](Cc1ccccc1)Nc1ccc([N+](=O)[O-])c([N+](=O)[O-])c1)C(=O)O [Compound 2] | 0.0028 ± 0.0002 µM | – | IC50 (Rhodesain (TbCatL)): 0.0364 ± 0.0023 µM; Mode of inhibition (time dependency, reversibility) (Rhodesain (TbCatL)): time-independent; Adduct with rhodesain in MALDI-TOF-MS (rhodesain [1]): no adduct was found; Reactivity towards unspecific nucleophiles (water and DTT) [2]: no relevant tendency towards either side reaction |
| CC(C)C[C@H](NC(=O)[C@H](Cc1ccccc1)Nc1cc(F)c([N+](=O)[O-])cc1[N+](=O)[O-])C(=O)O [Compound 3] | 0.0019 ± 0.0001 µM | – | IC50 (Rhodesain (TbCatL)): 0.0245 ± 0.0017 µM; Mode of inhibition (time dependency, reversibility) (Rhodesain (TbCatL)): time-independent; Adduct with rhodesain in MALDI-TOF-MS (rhodesain [1]): an adduct corresponding to the mass of the inhibitor was observed; Reactivity towards unspecific nucleophiles (water and DTT) [2]: no relevant tendency towards either side reaction |
| CC(C)C[C@H](NC(=O)[C@H](Cc1ccccc1)Nc1ccc([N+](=O)[O-])cc1)C(=O)O [Compound 4] | 17 µM | – | – |
| CC(C)C[C@H](NC(=O)[C@H](Cc1ccccc1)Nc1cc(F)ccc1[N+](=O)[O-])C(=O)O [Compound 5] | 44 µM | did not result in inhibition | – |
| CC(C)C[C@H](NC(=O)[C@H](Cc1ccccc1)Nc1cc(Cl)ncn1)C(=O)O [Compound 6] | 102 µM | did not produce an active inhibitor | – |
| CC(C)C[C@H](NC(=O)[C@H](Cc1ccccc1)NC(=O)Nc1ccc(F)c([N+](=O)[O-])c1)C(=O)O [Compound 7] | 50 µM | did not produce an active inhibitor | – |
| CC(C)C[C@H](NC(=O)[C@H](Cc1ccccc1)NC(=O)c1ccc(Cl)nc1Cl)C(=O)O [Compound 8] | 30 µM | did not yield relevant inhibition | – |
| CC(C)C[C@H](NC(=O)[C@H](Cc1ccccc1)NC(=O)c1cccc([N+](=O)[O-])c1F)C(=O)O [Compound 10] | 14 µM | ineffective | – |
| CC(C)C[C@H](NC(=O)[C@H](Cc1ccccc1)NC(=O)c1cc([N+](=O)[O-])ccc1F)C(=O)O [Compound 11] | 13 µM | ineffective | – |
| CC(C)C[C@H](NC(=O)[C@H](Cc1ccccc1)NC(=O)c1cc([N+](=O)[O-])c(Cl)cc1[N+](=O)[O-])C(=O)O [Compound 12] | 25 µM | – | Mode of inhibition (time dependency, reversibility) (Rhodesain (TbCatL)): abolished the time-dependent mode of inhibition |
| C[C@H](Nc1cc(F)c([N+](=O)[O-])cc1[N+](=O)[O-])C(=O)N[C@@H](CCc1ccccc1)C(=O)O [Compound 13] | 13 µM | – | – |
| C[C@@H](NC(=O)[C@@H](CCc1ccccc1)Nc1cc(F)c([N+](=O)[O-])cc1[N+](=O)[O-])C(=O)O [Compound 14, ((R)-2-((5-fluoro-2,4-dinitrophenyl)amino)-4-phenylbutanoyl)-D-alanine] | 27 µM | – | – |
| C[C@@H](Nc1cc(F)c([N+](=O)[O-])cc1[N+](=O)[O-])C(=O)N[C@H](CCc1ccccc1)C(=O)O [Compound 15] | 22 µM | – | – |
| C[C@H](NC(=O)[C@H](CCc1ccccc1)Nc1cc(F)c([N+](=O)[O-])cc1[N+](=O)[O-])C(=O)O [Compound 16] | 13 µM | – | – |
| O=C(O)[C@H](CCc1ccccc1)NC(=O)[C@H](Cc1ccccc1)Nc1cc(F)c([N+](=O)[O-])cc1[N+](=O)[O-] [Compound 17] | 6 µM | – | – |
| O=C(O)[C@@H](Cc1ccccc1)NC(=O)[C@@H](CCc1ccccc1)Nc1cc(F)c([N+](=O)[O-])cc1[N+](=O)[O-] [Compound 18] | 12 µM | – | – |
| CC(C)C[C@H](NC(=O)[C@H](Cc1ccccc1)Nc1ccc([N+](=O)[O-])c([N+](=O)[O-])c1)C(=O)OC(C)(C)C [Compound 20] | – | – | Papp at 7 h, 100 µM [3]: 9.3 ± 0.7 ×10⁻⁶ cm/s; aqueous solubility [4]: poor aqueous solubility |
| CN1CCN(C(=O)N[C@@H](Cc2ccccc2)C(=O)N[C@H](/C=C/S(=O)(=O)c2ccccc2)CCc2ccccc2)CC1 [Compound K11777, reference compound] | – | – | Activity of rhodesain after incubation and subsequent dilution (rhodesain [5]): −0.01 ±0.00 FU/s; Adduct with rhodesain in MALDI-TOF-MS (rhodesain [1]): showed the expected mass shift representative of covalent adduct formation |
| N-(5-fluoro-2,4-dinitrobenzoyl)-L-phenylalanyl-L-leucine [Compound 9] | – | – | Ki (Rhodesain (TbCatL); DTT-free conditions, TCEP for enzyme activation, read-out: KIapp): 200 µM; Ki (Rhodesain (TbCatL); KI, irreversible time-dependent inhibition, from KI^app by Cheng–Prusoff, read-out: Ki or KI): 53 µM; Mode of inhibition (time dependency, reversibility) (Rhodesain (TbCatL)): irreversible; Ki (Rhodesain (TbCatL); standard conditions with DTT, read-out: KIapp): 700 µM; Activity of rhodesain after incubation and subsequent dilution (rhodesain [5]): −0.01 ±0.00 FU/s; Adduct with rhodesain in MALDI-TOF-MS (rhodesain [1]): An adduct was also found for 9, albeit with a shift lower than the mass of the inhibitor; Reactivity towards unspecific nucleophiles (water and DTT) [2]: relevant reactivity towards unspecific nucleophiles |
